PubChem BioAssay AID200 (DTP/NCI, 2004)
“And” between values parts separate entries of the source, which are not always exact repeats. Identical values can stand only once. Toxic doses and inconclusive results are not listed. The calls were made as follows: active = survival T/C of 150% or more; inactive = T/C below 125% in these data. Where a SMILES comes first, the peptide text is derived from it.

Tested on: B6C3F1 mice, B16 melanoma ip, median survival T/C
Assay: NCI In Vivo Anticancer Drug Screen. Data for tumor model B16 Melanoma (intraperitoneal) in B6C3F1 mice
Details: endpoint: median survival time, higher = longer survival
Summary of the method: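 Antitumor effect was judged in mice with transplanted tumors by dividing the treated group's survival measure by that of vehicle controls.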

[1] = dose: 25.0 mg/kg/injection, schedule: Q01DX009 (ip), vehicle: saline with Tween-80
[2] = dose: 50.0 mg/kg/injection, schedule: Q01DX009 (ip), vehicle: saline with Tween-80
[3] = dose: 6.25 mg/kg/injection, schedule: Q01DX009 (ip), vehicle: saline with Tween-80
[4] = dose: 12.5 mg/kg/injection, schedule: Q01DX009 (ip), vehicle: saline with Tween-80
[5] = dose: 100.0 mg/kg/injection, schedule: Q01DX009 (ip), vehicle: saline with Tween-80
[6] = dose: 200.0 mg/kg/injection, schedule: Q01DX009 (ip), vehicle: saline with Tween-80
[7] = dose: 50.0 mg/kg/injection, schedule: Q01DX009 (ip), vehicle: suspension in saline
[8] = dose: 100.0 mg/kg/injection, schedule: Q01DX009 (ip), vehicle: suspension in saline
[9] = dose: 200.0 mg/kg/injection, schedule: Q01DX009 (ip), vehicle: suspension in saline
[10] = dose: 400.0 mg/kg/injection, schedule: Q01DX009 (ip), vehicle: saline with Tween-80
[11] = dose: 12.5 mg/kg/injection, schedule: Q01DX009 (ip), vehicle: Klucel (hydroxypropylcellulose) (HPC)
[12] = dose: 25.0 mg/kg/injection, schedule: Q01DX009 (ip), vehicle: Klucel (hydroxypropylcellulose) (HPC)
[13] = dose: 50.0 mg/kg/injection, schedule: Q01DX009 (ip), vehicle: Klucel (hydroxypropylcellulose) (HPC)
[14] = dose: 100.0 mg/kg/injection, schedule: Q01DX009 (ip), vehicle: Klucel (hydroxypropylcellulose) (HPC)
[15] = dose: 200.0 mg/kg/injection, schedule: Q01DX009 (ip), vehicle: Klucel (hydroxypropylcellulose) (HPC)
[16] = dose: 400.0 mg/kg/injection, schedule: Q01DX009 (ip), vehicle: Klucel (hydroxypropylcellulose) (HPC)

Measured: T/C

ClC1(Cl)Cc2ccccc21
inactive: dose: 18.0 mg/kg/injection, schedule: Q01DX009 (ip), vehicle: saline with Tween-80 105 % of control | [1] 122 % of control | dose: 30.0 mg/kg/injection, schedule: Q01DX009 (ip), vehicle: saline with Tween-80 107 % of control | [2] 99 % of control | dose: 83.33 mg/kg/injection, schedule: Q01DX009 (ip), vehicle: saline with Tween-80 103 % of control | dose: 138.88 mg/kg/injection, schedule: Q01DX009 (ip), vehicle: saline with Tween-80 100 % of control

O=C(Nc1ccc(Cl)c(Cl)c1)Nc1c(Oc2ccc(Cl)c(Cl)c2)ccc(Cl)c1S(=O)(=O)O
inactive: [3] 99 % of control | [4] 101 % of control | [1] 97 % of control | [2] 99 % of control | [5] 97 % of control | [6] 99 % of control

Nc1nc(N)c2c(Cl)c(CNc3ccc(Cl)c(Cl)c3)ccc2n1
inactive: dose: 3.12 mg/kg/injection, schedule: Q01DX009 (ip), vehicle: saline with Tween-80 121 % of control | [3] 106 % of control | [4] 123 % of control

N[C@@H](Cc1c[nH]c2ccccc12)C(=O)Nc1nncs1
inactive: [7] 94 % of control | [8] 95 % of control | [9] 103 % of control | dose: 400.0 mg/kg/injection, schedule: Q01DX009 (ip), vehicle: suspension in saline 106 % of control | dose: 800.0 mg/kg/injection, schedule: Q01DX009 (ip), vehicle: suspension in saline 109 % of control

Cc1cn(C2CC3[O][Sn]([c]4ccccc4)([c]4ccccc4)[O]CC3O2)c(=O)[nH]c1=O (stereo unspecified)
inactive: dose: 25.0 mg/kg/injection, schedule: Q01DX009 (ip), vehicle: suspension in saline 102 % of control | [7] 103 % of control | [8] 113 % of control | [9] 93 % of control

CCN(CC)c1ccc(N=Nc2ccc(C)cc2)cc1
inactive: [5] 96 % of control | [6] 93 % of control | [10] 96 % of control

CN(C)/N=N/c1nc[nH]c1C(N)=O
inactive: dose: 25.0 mg/kg/injection, schedule: Q01DX009 (ip), vehicle: distilled water + Tween-80 104 % of control | [1] 100 % of control | [2] 119 % of control | dose: 60.0 mg/kg/injection, schedule: Q04DX003 (ip), vehicle: carboxymethylcellulose (CMC) 109 % of control | dose: 60.0 mg/kg/injection, schedule: Q04DX003 (ip), vehicle: saline 120 % of control | dose: 80.0 mg/kg/injection, schedule: Q04DX003 (ip), vehicle: saline 102 % of control | dose: 100.0 mg/kg/injection, schedule: Q01DX009 (ip), vehicle: distilled water + Tween-80 109 % of control | dose: 120.0 mg/kg/injection, schedule: Q04DX003 (ip), vehicle: carboxymethylcellulose (CMC) 113 % of control | dose: 180.0 mg/kg/injection, schedule: Q04DX003 (ip), vehicle: carboxymethylcellulose (CMC) 118 % of control | dose: 180.0 mg/kg/injection, schedule: Q04DX003 (ip), vehicle: saline 120 % of control | [6] 93 % of control

CCN(CC)CC(=O)c1ccc(O)c(O)c1
inactive: [5] 92 % of control | [6] 107 % of control | [10] 117 % of control

CC(C)CC(NC(=O)CNC(=O)CNC(=O)OCc1ccccc1)C(=O)O (stereo unspecified)
inactive: dose: 0.75 mg/kg/injection, schedule: Q01DX009 (ip), vehicle: Klucel (hydroxypropylcellulose) (HPC) 103 % of control | dose: 1.5 mg/kg/injection, schedule: Q01DX009 (ip), vehicle: Klucel (hydroxypropylcellulose) (HPC) 107 % of control | dose: 3.0 mg/kg/injection, schedule: Q01DX009 (ip), vehicle: Klucel (hydroxypropylcellulose) (HPC) 95 % of control | dose: 3.12 mg/kg/injection, schedule: Q01DX009 (ip), vehicle: Klucel (hydroxypropylcellulose) (HPC) 101 % of control | dose: 6.0 mg/kg/injection, schedule: Q01DX009 (ip), vehicle: Klucel (hydroxypropylcellulose) (HPC) 106 % of control | dose: 6.25 mg/kg/injection, schedule: Q01DX009 (ip), vehicle: Klucel (hydroxypropylcellulose) (HPC) 92 % of control | dose: 12.0 mg/kg/injection, schedule: Q01DX009 (ip), vehicle: Klucel (hydroxypropylcellulose) (HPC) 101 % of control | [11] 92 % of control | [12] 115 % of control and 104 % of control | [13] 100 % of control | [14] 122 % of control | [15] 89 % of control | [16] 110 % of control

CC(=O)Nc1c2sscc-2n(C)c1=O
inactive: dose: 0.19 mg/kg/injection, schedule: Q01DX009 (ip), vehicle: saline 105 % of control | dose: 0.39 mg/kg/injection, schedule: Q01DX009 (ip), vehicle: saline 93 % of control | dose: 0.78 mg/kg/injection, schedule: Q01DX009 (ip), vehicle: saline 94 % of control

CCCCC(NC(=O)CNC(=O)CNC(=O)OCc1ccccc1)C(=O)O (stereo unspecified) (HELM PEPTIDE1{[O=C(OCc1ccccc1)[*:2]].G.G.[CCCCC(N[*:1])C(=O)O]}$$$$V2.0)
inactive: [14] 102 % of control | [15] 105 % of control | [16] 96 % of control

CCCCCCCOc1ccc(C(=O)O)cc1
inactive: [11] 106 % of control | [12] 108 % of control | [13] 114 % of control

COc1cc2cc3c(c(O)c2c(O)c1/C=C/C(C)C)C(=O)CC(C)(OC(C)=O)C3 (stereo unspecified)
inactive: dose: 0.62 mg/kg/injection, schedule: Q01DX009 (ip), vehicle: Klucel (hydroxypropylcellulose) (HPC) 98 % of control | dose: 0.63 mg/kg/injection, schedule: Q01DX009 (ip), vehicle: Klucel (hydroxypropylcellulose) (HPC) 104 % of control | dose: 1.25 mg/kg/injection, schedule: Q01DX009 (ip), vehicle: Klucel (hydroxypropylcellulose) (HPC) 109 % of control and 112 % of control | dose: 2.5 mg/kg/injection, schedule: Q01DX009 (ip), vehicle: Klucel (hydroxypropylcellulose) (HPC) 115 % of control and 122 % of control | dose: 10.0 mg/kg/injection, schedule: Q01DX009 (ip), vehicle: Klucel (hydroxypropylcellulose) (HPC) 100 % of control

NC(CO)(CO)CO
inactive: dose: 200.0 mg/kg/injection, schedule: Q01DX009 (ip), vehicle: saline 104 % of control | dose: 200.0 mg/kg/injection, schedule: Q12HX018 (ip), vehicle: saline 102 % of control | dose: 400.0 mg/kg/injection, schedule: Q01DX009 (ip), vehicle: saline 102 % of control | dose: 400.0 mg/kg/injection, schedule: Q12HX018 (ip), vehicle: saline 102 % of control | dose: 800.0 mg/kg/injection, schedule: Q01DX009 (ip), vehicle: saline 98 % of control | dose: 800.0 mg/kg/injection, schedule: Q12HX018 (ip), vehicle: saline 106 % of control | dose: 1600.0 mg/kg/injection, schedule: Q01DX009 (ip), vehicle: saline 98 % of control | dose: 1600.0 mg/kg/injection, schedule: Q12HX018 (ip), vehicle: saline 101 % of control

Cc1cc(C)c(-c2cc(O)c(C)cc2O)c(C)c1
inactive: [11] 99 % of control | [12] 101 % of control | [13] 103 % of control | [14] 99 % of control | [15] 100 % of control
